Source: US20200368315A1, “ANTIMICROBIAL PEPTIDES AND ADMIXTURES THEREOF SHOWING ANTIMICROBIAL ACTIVITY AGAINST GRAM-NEGATIVE PATHOGENS” (priority 2017, published 2020)
In brackets after ≈: the same amount, converted by molar mass. Where two headings read alike, the source gives them in different places. Non-standard residues stand in square brackets, D forms with d. Residues, ends and D or L forms follow the SMILES beside them. No end group written: not given here.

Columns and labels:
[1] = system: E. coli LMG15862; assay: microbe, parasite or virus in culture; type: cell-based, Escherichia coli; details: for MICb (GNP concentration when used alone): L-form GNP, Table 6
Protocol: (§1) Escherichia coli, Klebsiella pneumoniae, Pseudomonas aeruginosa, Acinetobacter baumannii, Enterobacter aerogenes were grown in Luria-Bertani (LB) broth shaken (200 rpm) or on LB agar at 37° C. […] MICs tests were performed in duplicate by a liquid growth inhibition microdilution assays in sterilized polypropylene microtiter plates according to Wiegand and […] [27]. […] The suspension was diluted in a ratio of 1:100 using Mueller Hinton Broth (MHB) and the final inoculum is 5*10^5 CFU/mL. […] The antimicrobials were diluted serially by 1/2 one by one and 50 uL diluted bacterial suspension were added to each well to make the final volume to be 100 uL. Growth control was accomplished by remove 10 uL from well 11 and dilute 1000 times to plate 1/10 suspension on the solid medium. […] The number of colonies on the control agar plate should be around 50 to ensure the concentration of the inoculum and the effectiveness of the experiment. The lowest concentration of the antimicrobials that inhibits visible growth of the indicator is identified as MIC.

[2] = system: K. pneumoniae LMG20218; assay: microbe, parasite or virus in culture; type: cell-based, Klebsiella pneumoniae
Protocol: as §1

[3] = system: P. aeruginosa LMG 6395; assay: microbe, parasite or virus in culture; type: cell-based, Pseudomonas aeruginosa
Protocol: as §1

[4] = system: E. aerogenes LMG 02094; assay: microbe, parasite or virus in culture; type: cell-based, Enterobacter aerogenes
Protocol: as §1

[5] = system: A. baumannii LMG01041; assay: microbe, parasite or virus in culture; type: cell-based, Acinetobacter baumannii
Protocol: as §1

[6] = system: P. aeruginosa LMG 6395; type: cell-based, Pseudomonas aeruginosa
Excerpt: (§2) The test of synergistic effect was processed by conducting standard chequerboard broth microdilution assays. Nisin (Drug X) was loaded two fold serially diluted from row 1 to 10 in X-axis while GNPs (Drug Y) were loaded in eight two fold serially diluted concentrations from line A to H in Y-axis (FIG. 1). The original concentrations of peptides were MICs of each. Row 11 are used as growth control with no peptide was included, while row 12 with MHB medium-only wells was included as a sterility control as referred before. 50 uL fresh bacterial suspension was added to well 1-11 and final volume of each well on the plate is 100 uL.
(§3) To determine whether the combination therapy is additive, synergistic or antagonistic, fractional inhibitory concentration (FIC) indices were calculated. FICI=FICa+FICb=MICac/MICa+MICbc/MICb. The MICa/MICb is the MIC of compound A/B alone. MICac is the MIC of compound A in combination with compound B and MICbc is the MIC of compound B when it was combination with compound A. […]. FICa is FIC of compound A while FICb is FIC of compound B. The FICI is interpreted as follows: synergistic, FICI≤0.5; additive, 0.5<FICI<1; indifferent, 1<FICI<2; antagonistic, FICI>2.

[7] = system: E. coli LMG15862; type: cell-based, Escherichia coli
Excerpt: as §2, §3

[8] = system: K. pneumoniae LMG20218; type: cell-based, Klebsiella pneumoniae
Excerpt: as §2, §3

[9] = system: A. baumannii LMG01041; type: cell-based, Acinetobacter baumannii
Excerpt: as §2, §3

[10] = system: E. aerogenes LMG 02094
Protocol: (§4) The test of synergistic effect was processed by conducting standard chequerboard broth microdilution assays. […] Row 11 are used as growth control with no peptide was included, while row 12 with MHB medium-only wells was included as a sterility control as referred before. 50 uL fresh bacterial suspension was added to well 1-11 and final volume of each well on the plate is 100 uL.
(§5) The test of synergistic effect was processed as method 1.4.
as §3

[11] = system: K. pneumoniae LMG20218
Protocol: as §4, §5, §3

[12] = system: E. coli LMG15862
Protocol: as §4, §5, §3

[13] = system: P. aeruginosa LMG 6395
Protocol: as §4, §5, §3

[14] = system: A. baumannii LMG01041
Protocol: as §4, §5, §3

[15] = system: E. aerogenes LMG 02094; type: cell-based, Enterobacter aerogenes
Excerpt: as §2, §3

[16] = gene nisA (nisin A mutants); cited from earlier work
[17] = MIC of GNP when used with the MICac concentration of nisin
[18] = MIC of nisin in combination with the GNP at the MICbc concentration
[19] = MIC of GNP in combination with vancomycin at the MICac concentration
[20] = MIC of vancomycin in combination with the GNP at the MICbc concentration

CC[C@@H](C)[C@@H](NC(=O)CN)C(=O)NCC(=O)N[C@H](CCCCN)C(=O)N[C@H](Cc1c[nH]cn1)C(=O)N[C@@H](C(=O)NCC(=O)N[C@H](CCCCN)C(=O)N[C@H](C)C(=O)N[C@H](CC(C)C)C(=O)N[C@H](CCCCN)C(=O)NCC(=O)N[C@H](CC(C)C)C(=O)N[C@H](CCCCN)C(=O)NCC(=O)N[C@H](CC(C)C)C(=O)N[C@H](CC(C)C)C(=O)N[C@H](CCCCN)C(=O)NCC(=O)N[C@H](CC(C)C)C(=O)NCC(=O)N[C@H](CCC(=O)O)C(=O)N[C@H](CS)C(=O)O)C(C)C [GNP-D7] (H-G[dI]G[dK][dH][dV]G[dK][dA][dL][dK]G[dL][dK]G[dL][dL][dK]G[dL]G[dE][dC]-OH; N-terminus and C-terminus assumed)
MICb (MIC of GNP alone) ([1]; D form GNP, E. coli LMG15862, Table 9): 2 µM
MIC value ([1]; LMG15862): 2 µM (≈ 4.55 µg/mL)
MICb (MIC of GNP alone) ([2]; D form GNP, K. pneumoniae LMG20218, Table 9): 4 µM
MIC value ([2]; LMG20218): 4 µM (≈ 9.11 µg/mL)
MICb (MIC of GNP alone) ([3]; D form GNP, P. aeruginosa LMG 6395, Table 9): 4 µM
MIC value ([3]; LMG 6395): 4 µM (≈ 9.11 µg/mL)
MICb (MIC of GNP alone) ([4]; D form GNP, E. aerogenes LMG 02094, Table 9): 4 µM
MIC value ([4]; LMG 02094): 4 µM (≈ 9.11 µg/mL)
MICb (MIC of GNP alone) ([5]; D form GNP, A. baumannii LMG01041, Table 9): 2 µM
MIC value ([5]; LMG01041): 2 µM (≈ 4.55 µg/mL)

AIVQRIKKWLR-NH2 [GNP8-3]
MICb ([6]; MIC of GNP alone): 16 µM
MICbc [6, 17]: 8 µM
MICac [6, 18]: 4.5 µM
MICb ([7]; MIC of GNP alone): 12 µM
MICbc [7, 17]: 1.5 µM
MICac [7, 18]: 1.5 µM
MICb ([8]; MIC of GNP alone): 24 µM
MICbc [8, 17]: 3 µM
MICac [8, 18]: 1.5 µM
MICb ([9]; MIC of GNP alone): 128 µM
MICbc [9, 17]: 32 µM
MICac [9, 18]: 0.375 µM
MICb ([10]; MIC of GNP alone): 128 µM
MICbc [10, 19]: 16 µM
MICac [10, 20]: 12 µM
MICb ([11]; MIC of GNP alone): 24 µM
MICbc [11, 19]: 3 µM
MICac [11, 20]: 16 µM
MICb ([12]; MIC of GNP alone): 12 µM
MICbc [12, 19]: 3 µM
MICac [12, 20]: 4 µM
MICb ([13]; MIC of GNP alone): 16 µM
MICbc [13, 19]: 8 µM
MICac [13, 20]: 4 µM
MICb ([14]; MIC of GNP alone): 128 µM
MICbc [14, 19]: 8 µM
MICac [14, 20]: 4 µM
MICb ([15]; MIC of GNP alone): 128 µM
MICbc [15, 17]: 8 µM
MICac [15, 18]: 4 µM

GIGKHVGKALKGLKGLLKGLGEC [GNP-7]
MICb (GNP concentration when used alone) ([1]; E. coli LMG15862): 6 µM
MICb (MIC of GNP alone) ([2]; LMG20218): 12 µM
MICb (MIC of GNP alone) ([3]; LMG 6395): 13 µM
MICb (MIC of GNP alone) ([4]; LMG 02094): 8 µM
MICb (MIC of GNP alone) ([5]; LMG01041): 2 µM

GNNRPVYIPQPRPPHPRL [GNP-1]
MICb (GNP concentration when used alone) ([1]; E. coli LMG15862): 0.5 µM
MICb (MIC of GNP alone) ([2]; LMG20218): 5 µM
MICb (MIC of GNP alone) ([3]; LMG 6395): >64 µM
MICb (MIC of GNP alone) ([4]; LMG 02094): 8 µM
MICb (MIC of GNP alone) ([5]; LMG01041): >64 µM

K12S (ITSISLCTPGCSTGALMGCNMKTATCHCSIHVSK; cysteine pairing not given here; also: lantibiotic nisin-A; UniProt P13068 24-57, looked up, variant K12S)
Biological activity (relative to the wild type) [16]: Increased (Increased activity, >120% compared to the activity of wild type nisin A/Z)

K12T (ITSISLCTPGCTTGALMGCNMKTATCHCSIHVSK; cysteine pairing not given here; also: lantibiotic nisin-A; UniProt P13068 24-57, looked up, variant K12T)
Biological activity (relative to the wild type) [16]: Increased (Increased activity, >120% compared to the activity of wild type nisin A/Z)
